Data reported in patent publication US20230159509A1 (Amathus Therapeutics, Inc., priority 2020, published 2023).

Key:
[1] = tested on: tamoxifen-induced polycystic kidney disease model (Ksp-TamCre×PkdlLox); test: Tamoxifen-induced polycystic kidney disease mouse model; assay type: in vivo; settings: compound 1206 10 mg/kg po QD 14d; for 2 KW/BW ratio (kidney weight/body weight): compared to tamoxifen-induced vehicle control group
Description: Compound 1206 (10 mg/kg po, QD dosing for 14d, n=13/group) was assessed in a tamoxifen-induced polycystic kidney disease model (Ksp-TamCre×PkdlLox; Human Molecular Genetics, 2007, Vol. 16, No. 24, 3188-3196). A negative control group induced with tamoxifen (Vehicle) and a negative control group not induced with tamoxifen (No Tam) were included. A positive control group was dosed with everolimus. Mice were dosed orally on both PND 10, 11 with 25 mg/kg tamoxifen. Oral dosage of vehicle, compound 1206, and everolimus started from PND 14 onwards to PND 27. The readouts of this study were body weight, kidney weight, BUN levels and histopathology assessment including cyst index.
The fixated kidney half was processed for paraffin embedding and further pathological assessment after hematoxylin-eosin staining. One piece of each H-E stained kidney half was observed by a board certified pathologist, who read a cross section of the kidney. For each kidney one section was evaluated. From this section an overview photo was taken (2X) and used to calculate the cystic index. The cystic areas were identified by a color thresholding method using an image analysis system (Image software, public domain software, NIH, Bethesda, Md.). The threshold area was calculated within a defined ROI (region of interest) representing the total area analyzed. This area represents at least 70-80% of the entire kidney section. The cystic index (CI) is defined as the percentage of the area of cysts lumen (in pixels) over the total kidney area in the selected ROI (in pixels).

TRAP1 enzyme = target: T1, TRAP1 enzyme (Homo sapiens, UniProt Q12931); test: ADP Glo assay of TRAP1 ATPase activity; assay type: biochemical
T1 construct: 150 nM Trap1 enzyme was incubated with various concentrations of the test compound
T1 sequence (Q12931 60-704): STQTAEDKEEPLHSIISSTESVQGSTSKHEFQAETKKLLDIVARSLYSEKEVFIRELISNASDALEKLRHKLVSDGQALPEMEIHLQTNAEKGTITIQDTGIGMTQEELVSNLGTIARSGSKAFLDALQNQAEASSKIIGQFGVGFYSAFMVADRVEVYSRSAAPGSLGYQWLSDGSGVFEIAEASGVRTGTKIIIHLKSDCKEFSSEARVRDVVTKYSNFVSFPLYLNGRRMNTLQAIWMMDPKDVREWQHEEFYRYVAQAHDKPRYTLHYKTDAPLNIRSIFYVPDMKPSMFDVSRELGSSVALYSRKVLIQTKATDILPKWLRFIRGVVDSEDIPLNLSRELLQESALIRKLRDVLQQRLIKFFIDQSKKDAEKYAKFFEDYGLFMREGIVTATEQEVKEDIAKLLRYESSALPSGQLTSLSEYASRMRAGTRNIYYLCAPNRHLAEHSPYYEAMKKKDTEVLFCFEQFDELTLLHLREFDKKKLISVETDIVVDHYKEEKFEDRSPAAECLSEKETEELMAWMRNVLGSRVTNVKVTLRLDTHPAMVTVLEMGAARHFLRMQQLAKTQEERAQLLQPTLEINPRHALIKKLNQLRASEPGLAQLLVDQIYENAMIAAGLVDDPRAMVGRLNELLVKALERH
How it was run: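 ADP-Glo luminescence quantifying ADP from 150 nM TRAP1 preincubated 30 min at 37° C with compound (0.79–100 μM), then 20 μM ATP for 60 min at 37° C. Buffer: 25 mM Pipes pH 7.5, 40 mM KCl, 0.05 mM MgCl2, EGTA, BSA, detergents. ADP from ATP/ADP standard curve; Emax and EC50 from sigmoidal fit.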

mIMCD3 Pkd1 KO cells = test: Mouse cell derived cyst assay; assay type: cell-based; settings: Pkd 1 KO mouse cell derived cyst forming assay; FIG. 16
Description: Mouse cell derived cyst assays were performed as described in Booij, Tijmen H et al., SLAS discovery: advancing life sciences R & D vol. 22.8 (2017): 974-984, or as described below.
Murine inner medullary collecting duct cell line (mIMCD3 Pkd1^−/− cells) • mIMCD3 Pkd1 KO cells were seeded in 384 wells plates in extracellular matrix. • 4 days after seeding, cultures were co-exposed to treatments and stimuli (2.5 μM forskolin); • After 72 h, cultures were fixed, stained for nuclei and actin cytoskeleton and imaged with 4× magnification; and • Image analysis of the 3D stack was done using Ominer™ image analysis software.

[2] = compared with tamoxifen-induced vehicle control group

SMILES	2 KW/BW ratio (kidney weight/body weight) [1]	cystic index [1, 2]	EC50 (TRAP1 enzyme; concentration for half maximal activation, read-out: ADP GLO DRC: GeoMean EC50) [µM]	Emax (TRAP1 enzyme; maximal percent activation, read-out: ADP GLO DRC: Mean Emax) [%]	urea levels (BUN) [1, 2]	cyst formation (mIMCD3 Pkd1 KO cells)
CO[C@H]1C[C@@H]2CC[C@@H](C)[C@@](O)(O2)C(=O)C(=O)N2CCCC[C@H]2C(=O)O[C@H]([C@H](C)C[C@@H]2CC[C@@H](OCCO)[C@H](OC)C2)CC(=O)[C@H](C)/C=C(\C)[C@@H](O)[C@@H](OC)C(=O)[C@H](C)C[C@H](C)/C=C/C=C/C=C/1C [everolimus, reference compound]	significantly lower	significantly lower	–	–	–	–
COc1ncc(NC(=O)c2ccc3c(c2)n(C)c(=O)n3C)cc1S(=O)(=O)Nc1ccc(Cl)cc1 [compound 1206, N-(5-(N-(4-chlorophenyl)sulfamoyl)-6-methoxypyridin-3-yl)-1,3-dimethyl-2-oxo-2,3-dihydro-1H-benzo[d]imidazole-5-carboxamide]	significantly lower	significantly lower	< 10	119 to 159	significantly lower	preventing cyst formation
